Assay results as given in the supplement of paper PMC4628005.

Tests used:
Conditions in all cases: drug exposure time: 96 h
Erlotinib = compound: C#Cc1cccc(Nc2ncnc3cc(OCCOC)c(OCCOC)cc23)c1 [Erlotinib]
Procedure: (§1)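 Breast cancer cell lines were grown in RPMI 1640 with 10% FBS on collagen I-coated 96-well plates and treated for 96 h (from 24 h after seeding) with 12 dilutions per drug, in triplicate. Growth was read by sulforhodamine B total-protein staining (absorbance 570 nm) relative to diluent control, and IC50 was calculated. The top dose was 1e-5 M for most drugs; Bortezomib went to 2e-5 M and Sirolimus and 17-AAG to 2e-6 M[…].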

Docetaxel = compound: CC(=O)O[C@@]12CO[C@@H]1C[C@H](O)[C@@]1(C)C(=O)[C@H](O)C3=C(C)[C@@H](OC(=O)[C@H](O)[C@@H](NC(=O)OC(C)(C)C)c4ccccc4)C[C@@](O)([C@@H](OC(=O)c4ccccc4)[C@H]21)C3(C)C [Docetaxel]
Procedure: as §1

Paclitaxel = compound: CC(=O)O[C@H]1C(=O)[C@@]2(C)[C@H]([C@H](OC(=O)c3ccccc3)[C@]3(O)C[C@H](OC(=O)[C@H](O)[C@@H](NC(=O)c4ccccc4)c4ccccc4)C(C)=C1C3(C)C)[C@]1(OC(C)=O)CO[C@@H]1C[C@@H]2O [Paclitaxel]
Procedure: as §1

MI-219 = compound: CC(C)(C)C[C@H]1N[C@@H](C(=O)NCC[C@H](O)CO)[C@H](c2cccc(Cl)c2)[C@@]12C(=O)Nc1cc(Cl)c(F)cc12 [MI-219]
Procedure: as §1

Tamoxifen = compound: CC/C(=C(\c1ccccc1)c1ccc(OCCN(C)C)cc1)c1ccccc1 [Tamoxifen]
Procedure: as §1

Sunitinib = compound: CCN(CC)CCNC(=O)c1c(C)[nH]c(/C=C2\C(=O)Nc3ccc(F)cc32)c1C [Sunitinib]
Procedure: as §1

Methotrexate = compound: CN(Cc1cnc2nc(N)nc(N)c2n1)c1ccc(C(=O)N[C@@H](CCC(=O)O)C(=O)O)cc1 [Methotrexate]
Procedure: as §1

Sorafenib = compound: CNC(=O)c1cc(Oc2ccc(NC(=O)Nc3ccc(Cl)c(C(F)(F)F)c3)cc2)ccn1 [Sorafenib]
Procedure: as §1

Vandetanib = compound: COc1cc2/c(=N/c3ccc(Br)cc3F)nc[nH]c2cc1OCC1CCN(C)CC1 [Vandetanib]
Procedure: as §1

Gefitinib = compound: COc1cc2ncnc(Nc3ccc(F)c(Cl)c3)c2cc1OCCCN1CCOCC1 [Gefitinib]
Procedure: as §1

Nutlin-3 = compound: COc1ccc(C2=N[C@@H](c3ccc(Cl)cc3)[C@@H](c3ccc(Cl)cc3)N2C(=O)N2CCNC(=O)C2)c(OC(C)C)c1 [Nutlin-3]
Procedure: as §1

Lapatinib = compound: CS(=O)(=O)CCNCc1ccc(-c2ccc3ncnc(Nc4ccc(OCc5cccc(F)c5)c(Cl)c4)c3c2)o1 [Lapatinib]
Procedure: as §1

Panobinostat = compound: Cc1[nH]c2ccccc2c1CCNCc1ccc(/C=C/C(=O)NO)cc1 [Panobinostat]
Procedure: as §1

Brivanib = compound: Cc1cc2c(F)c(Oc3ncnn4cc(OC[C@@H](C)O)c(C)c34)ccc2[nH]1 [Brivanib]
Procedure: as §1

Dasatinib = compound: Cc1nc(Nc2ncc(C(=O)Nc3c(C)cccc3Cl)s2)cc(N2CCN(CCO)CC2)n1 [Dasatinib]
Procedure: as §1

Quisinostat = compound: Cn1cc(CNCC2CCN(c3ncc(C(=O)NO)cn3)CC2)c2ccccc21 [Quisinostat]
Procedure: as §1

Azacitidine = compound: Nc1ncn([C@@H]2O[C@H](CO)[C@@H](O)[C@H]2O)c(=O)n1 [Azacitidine]
Procedure: as §1

Decitabine = compound: Nc1ncn([C@H]2C[C@H](O)[C@@H](CO)O2)c(=O)n1 [Decitabine]
Procedure: as §1

Belinostat = compound: O=C(/C=C/c1cccc(S(=O)(=O)Nc2ccccc2)c1)NO [Belinostat]
Procedure: as §1

Vorinostat = compound: O=C(CCCCCCC(=O)Nc1ccccc1)NO [Vorinostat]
Procedure: as §1

Mitoxantrone = compound: O=C1c2c(O)ccc(O)c2C(=O)c2c(NCCNCCO)ccc(NCCNCCO)c21 [Mitoxantrone]
Procedure: as §1

5-Fluorouracil = compound: O=c1[nH]cc(F)c(=O)[nH]1 [5-Fluorouracil]
Procedure: as §1

Serdemetan = compound: c1ccc2c(CCNc3ccc(Nc4ccncc4)cc3)c[nH]c2c1 [Serdemetan]
Procedure: as §1

17-AAG = compound: C=CCNC1=C2C[C@@H](C)C[C@H](OC)[C@H](O)[C@@H](C)/C=C(\C)[C@H](OC(N)=O)[C@@H](OC)/C=C\C=C(/C)C(=O)NC(=CC1=O)C2=O [17-AAG]
Procedure: (§2)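 Same SRB 96 h IC50 screen on breast cancer cell lines (RPMI 1640 + 10% FBS, collagen I-coated 96-well plates, triplicates, 12 dilutions), for drugs with a different dose range: Bortezomib up to 2e-5 M; Sirolimus and 17-AAG up to 2e-6 M. Sirolimus values at the 2e-6 M top dose are censored.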

Bortezomib = compound: CC(C)C[C@H](NC(=O)[C@H](Cc1ccccc1)NC(=O)c1cnccn1)B(O)O [Bortezomib]
Procedure: as §2

Sirolimus = compound: CO[C@H]1C[C@@H]2CC[C@@H](C)[C@@](O)(O2)C(=O)C(=O)N2CCCC[C@H]2C(=O)O[C@H]([C@H](C)C[C@@H]2CC[C@@H](O)[C@H](OC)C2)CC(=O)[C@H](C)/C=C(\C)[C@@H](O)[C@@H](OC)C(=O)[C@H](C)C[C@H](C)/C=C/C=C/C=C/1C [Sirolimus]
Procedure: as §2

Doxorubicin = compound: COc1cccc2c1C(=O)c1c(O)c3c(c(O)c1C2=O)C[C@@](O)(C(=O)CO)C[C@@H]3O[C@H]1C[C@H](N)[C@H](O)[C@H](C)O1 [Doxorubicin]
Procedure: as §1

Cisplatin = compound: N.N.[Cl][Pt][Cl] [Cisplatin]
Procedure: as §1

Row | Test System | IC50 (SRB growth assay) (Erlotinib) | IC50 (SRB growth assay) (Docetaxel) | IC50 (SRB growth assay) (Paclitaxel) | IC50 (SRB growth assay) (MI-219) | IC50 (SRB growth assay) (Tamoxifen) | IC50 (SRB growth assay) (Sunitinib) | IC50 (SRB growth assay) (Methotrexate) | IC50 (SRB growth assay) (Sorafenib) | IC50 (SRB growth assay) (Vandetanib) | IC50 (SRB growth assay) (Gefitinib) | IC50 (SRB growth assay) (Nutlin-3) | IC50 (SRB growth assay) (Lapatinib) | IC50 (SRB growth assay) (Panobinostat) | IC50 (SRB growth assay) (Brivanib) | IC50 (SRB growth assay) (Dasatinib) | IC50 (SRB growth assay) (Quisinostat) | IC50 (SRB growth assay) (Azacitidine) | IC50 (SRB growth assay) (Decitabine) | IC50 (SRB growth assay) (Belinostat) | IC50 (SRB growth assay) (Vorinostat) | IC50 (SRB growth assay) (Mitoxantrone) | IC50 (SRB growth assay) (5-Fluorouracil) | IC50 (SRB growth assay) (Serdemetan) | IC50 (SRB growth assay) (17-AAG) | IC50 (SRB growth assay) (Bortezomib) | IC50 (SRB growth assay) (Sirolimus) | IC50 (SRB growth assay) (Doxorubicin) | IC50 (SRB growth assay) (Cisplatin)
1 | SKBR 7 | > 10000 nM | 0.338 nM | 1.07 nM | 3200 nM | 8320 nM | 5350 nM | 11.1 nM | 2400 nM | 7760 nM | > 10000 nM | 7530 nM | 2510 nM | 15.9 nM | > 10000 nM | > 10000 nM | 7.17 nM | > 10000 nM | 2510 nM | 470 nM | 918 nM | 3.02 nM | 1580 nM | 798 nM | 74.1 nM | 24.6 nM | 0.886 nM | – | –
2 | SUM 149 PT | 766 nM | 0.226 nM | 1.31 nM | > 10000 nM | 5210 nM | 3430 nM | 10.6 nM | 5590 nM | 877 nM | 2860 nM | > 10000 nM | 81 nM | 8.96 nM | > 10000 nM | 70.6 nM | 6.79 nM | > 10000 nM | 81 nM | 171 nM | 515 nM | 1 nM | 7760 nM | 608 nM | 17.7 nM | 5.35 nM | 10.7 nM | – | –
3 | SUM 159 PT | 5260 nM | 0.71 nM | 2.95 nM | > 10000 nM | 6360 nM | 1960 nM | 2.36 nM | 3730 nM | 5260 nM | > 10000 nM | > 10000 nM | 46.7 nM | 8.19 nM | > 10000 nM | 4060 nM | 8.78 nM | > 10000 nM | 46.7 nM | 213 nM | 475 nM | 1.24 nM | 1680 nM | 547 nM | 4.73 nM | 3.27 nM | 0.288 nM | – | –
4 | SUM 185 PE | 9480 nM | 2.17 nM | 4.07 nM | > 10000 nM | 5380 nM | 1040 nM | > 10000 nM | 2530 nM | 2280 nM | > 10000 nM | > 10000 nM | > 10000 nM | 8.38 nM | 4530 nM | > 10000 nM | 5.45 nM | > 10000 nM | > 10000 nM | 352 nM | 891 nM | 7.18 nM | > 10000 nM | 1140 nM | 8.53 nM | 8.04 nM | 0.0747 nM | – | –
5 | SUM 190 PT | 5250 nM | 0.883 nM | 1.91 nM | > 10000 nM | 8040 nM | 3870 nM | > 10000 nM | 2060 nM | 4540 nM | > 10000 nM | > 10000 nM | > 10000 nM | 78 nM | > 10000 nM | 223 nM | 72.4 nM | > 10000 nM | > 10000 nM | 4610 nM | 4730 nM | 20.8 nM | > 10000 nM | 871 nM | 79.5 nM | 6.51 nM | 0.548 nM | – | –
6 | SUM 229 PE | 7630 nM | 0.539 nM | 1.46 nM | > 10000 nM | 4170 nM | 3320 nM | 25.7 nM | 5640 nM | 1870 nM | 7560 nM | > 10000 nM | 27.2 nM | 25.1 nM | > 10000 nM | 387 nM | 10.6 nM | > 10000 nM | 27.2 nM | 1000 nM | 1820 nM | 6.3 nM | 2960 nM | 292 nM | 19.8 nM | 5.42 nM | 0.201 nM | – | –
7 | SUM 1315 MO2 | > 10000 nM | 1.54 nM | 3.29 nM | > 10000 nM | > 10000 nM | 4280 nM | 138 nM | 5570 nM | 2590 nM | > 10000 nM | > 10000 nM | 6720 nM | 31.7 nM | 7200 nM | 53.7 nM | 29.6 nM | 3600 nM | – | 703 nM | 1190 nM | 2.7 nM | > 10000 nM | 1190 nM | 55.1 nM | 6.55 nM | 0.917 nM | 17.5 nM | > 10000 nM
8 | UACC 893 | 1490 nM | 0.701 nM | 1.95 nM | > 10000 nM | 5500 nM | 2300 nM | 164 nM | 4460 nM | 4360 nM | 1710 nM | > 10000 nM | > 10000 nM | 5.26 nM | > 10000 nM | 6910 nM | 4.25 nM | > 10000 nM | > 10000 nM | 134 nM | 487 nM | 4.1 nM | 8200 nM | 2870 nM | 18.2 nM | 3.92 nM | 0.072 nM | – | –
